In PubChem BioAssay AID977621 (Broad Institute, 2014) one finds AC50 data, which are given here for 61 compounds.

Results filed as inconclusive are left out. Active and inactive are the calls of the source.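 The calls were made as follows: active = Wild-type ribosome reporter drop at least double the humanized mutant ribosome reporter drop, growth loss under a set limit; inconclusive = no clear call, values can overlap the other calls; inactive = the rest.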

The first assay concerns E. coli wild-type GFP strain growth, fluorescence, 24 h. In words: growth inhibition of wild-type GFP E. coli, dose response, H69 mutant RFP, cherry-pick (AID 977621).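 Also: wild-type GFP and H69 mutant RFP strains grown together 50/50 in each well.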
Conditions: not given
The term AC50 denotes the concentration at which the activity in the assay is half-maximal. On to `CC(C)CN1C(=O)c2ccc(C(=O)Nc3ccncc3)cc2C1=O`, for which the AC50 is > 100 µM (inactive). With `C[C@@H](NC(=O)C[C@@H]1CC[C@@H]2[C@H](COC[C@H](O)CN2C(=O)Nc2cccc(F)c2)O1)c1ccccc1`, the AC50 is > 100 µM (inactive). As for `Cc1onc(-c2ccccc2Cl)c1C(=O)N[C@@H](C)c1ccccc1`, the AC50 was > 100 µM (inactive). Still for that read-out and setting: for `Cc1ccc(C(=O)C2CCN(CC(=O)Nc3nc(C)cs3)CC2)cc1` the value was > 100 µM (inactive); for `O=C(CN1CCC(n2nnc3cc(F)ccc32)CC1)N1CCc2ccccc2C1`, > 100 µM (inactive); for `CCCC(=O)N(CCc1ccc(OC)cc1)Cc1nc2ccccc2c(=O)[nH]1`, > 100 µM (inactive). `COc1cccc(OC)c1OCCCOc1cccc2cccnc12`: the AC50 was > 100 µM (inactive). `CCOC(=O)Cc1csc(SCC(=O)Nc2cc(C)ccc2OC)n1`: the AC50 was > 100 µM (inactive). As to `NC(=O)c1ccsc1NC(=O)COC(=O)CSc1ccc(Cl)cc1`, the AC50 is > 100 µM (inactive). `O=C(c1ccc(Cl)cc1)N1CCN(c2cccc3[nH]ccc23)CC1`: the AC50 was > 100 µM (inactive). Regarding `N#CC1CN(Cc2ccccc2)CN(Cc2ccccc2)C1`, the AC50 is > 100 µM (inactive). As for `CCOC(=O)c1nc(C)sc1-c1ccnn1S(=O)(=O)c1ccc(C)cc1`, the AC50 was > 100 µM (inactive). For the compound `Cc1ccccc1OCc1nc2ccccc2n1C`, the AC50 is > 100 µM (inactive). Regarding `Nc1nn(-c2ccccc2)c2ccc([N+](=O)[O-])cc12`, the AC50 is > 100 µM (inactive).

For the compound `CCCn1c(NCc2ccc3c(c2)OCO3)nc2ccccc21`, the AC50 was > 100 µM (inactive).

Turning to `CC(OC(=O)COc1ccccc1)C(=O)NC1CCCC1` (stereo not drawn), the AC50 was > 100 µM (inactive). Consider `COc1cccc(-c2ccc([C@@H]3[C@H](CO)N4CCCCN(S(=O)(=O)c5cccs5)C[C@@H]34)cc2)c1`, for which the AC50 is > 100 µM (inactive). Consider `C[C@@H]1CN([C@@H](C)CO)C(=O)CCCn2nncc2CO[C@H]1CN(C)C(=O)Nc1cccc(C(F)(F)F)c1`, for which the AC50 is > 100 µM (inactive). For `O=C(c1cccc(F)c1)N1CCN(c2ccc([N+](=O)[O-])c3cccnc23)CC1`, the AC50 is > 100 µM (inactive). For the compound `CCN(C(=O)COC(=O)CCc1ccccc1)c1ccccc1`, the AC50 is > 100 µM (inactive). Regarding `Clc1ccc(-c2nc(NCCCN3CCOCC3)c3ccccc3n2)cc1`, the AC50 is > 100 µM (inactive).

In the case of `O=C(Cn1cc(C(=O)c2ccco2)c2ccccc21)Nc1ccccc1F`, the AC50 is > 100 µM (inactive). For the compound `COc1ccc(OC)c(CN2CCCC(C(=O)c3ccccc3SC)C2)c1` (stereo not drawn), the AC50 is > 100 µM (inactive). For `Nc1nc(SCc2ccccc2)c2ncn(Cc3ccccc3)c2n1`, the AC50 was > 100 µM (inactive).

As for `COc1ccccc1N(C1=NCCCS1)S(=O)(=O)c1ccc(C(C)(C)C)cc1`, the AC50 is > 100 µM (inactive).

Turning to `COc1ccc(NS(=O)(=O)c2ccc(Cl)c(NC(=O)c3ccccc3F)c2)cc1`, the AC50 was > 100 µM (inactive). Consider `Cc1ccc(SCC(=O)Nc2ccc(S(=O)(=O)Nc3nccs3)cc2)cc1`, for which the AC50 was > 100 µM (inactive). On the same count and under the same terms, for `CCOC(=O)C1CCCN(C(=O)c2csc(-c3ccc4c(c3)CCO4)n2)C1` (stereo not drawn) the value was > 100 µM (inactive); for `CCn1ncc(Br)c1C(=O)Nc1ccc2c(c1)OCCO2`, > 100 µM (inactive). `CC1CCN(c2ccc3nnc(CCC(=O)Nc4cccc(F)c4)n3n2)CC1`: the AC50 is > 100 µM (inactive). Same read-out and setting: for `Cn1cnc(CCNC(=O)C[C@H]2CC[C@@H]3[C@H](COC[C@H](O)CN3C(=O)Nc3ccc(Cl)cc3)O2)c1` the value was > 100 µM (inactive); for `CN(c1ccccc1)S(=O)(=O)c1cccc(C(=O)OCC(=O)NCc2ccco2)c1`, > 100 µM (inactive).

Still in this assay, the particulars now being: E. coli mixed culture, 24 h; measured here: total growth OD600, test 2.
`CC(C)CN1C(=O)c2ccc(C(=O)Nc3ccncc3)cc2C1=O` returned an AC50 of over 100 µM. Compound `Cc1ccc(-c2nc(CN3CCCCC3c3cccc(F)c3)c(C)o2)o1` (stereo not drawn) displayed an AC50 of over 100 µM.

On to `Cc1onc(-c2ccccc2Cl)c1C(=O)N[C@@H](C)c1ccccc1`, for which the concentration at half-maximal activity (AC50) is over 100 µM. Turning to `Cc1ccc(C(=O)C2CCN(CC(=O)Nc3nc(C)cs3)CC2)cc1`, the AC50 came out at 7.66 µM. In turn, `CC(=O)Nc1ccc(S(=O)(=O)Nc2cccc(-c3nc4cc(C)ccc4o3)c2)cc1` gave an AC50 of over 100 µM.

Compound `Cc1cc(Cl)ccc1OCCCC(=O)OCC(N)=O` displayed an AC50 of over 100 µM. Still for that read-out and setting: for `CNC(=O)c1sc(-c2ccccn2)nc1C` the value was over 100 µM; for `CCOC(=O)Cc1csc(SCC(=O)Nc2cc(C)ccc2OC)n1`, over 100 µM; for `NC(=O)c1ccsc1NC(=O)COC(=O)CSc1ccc(Cl)cc1`, over 100 µM. Still for that read-out and setting: for `CC(=O)OC(COc1cccc(C)c1)Cn1cnc2ccccc21` (stereo not drawn) the value was 48.6 µM; for `CCCn1c(NCc2ccc3c(c2)OCO3)nc2ccccc21`, 49.9 µM; for `CC(OC(=O)COc1ccccc1)C(=O)NC1CCCC1` (stereo not drawn), over 100 µM.

The compound `COc1ccc(NS(=O)(=O)c2cccc3ccccc23)cc1` gave an AC50 of 33.7 µM. `COc1cccc(CN(C)Cc2nc(Cc3ccccc3Cl)no2)c1` displayed an AC50 of 51.7 µM. Turning to `COc1cccc(-c2ccc([C@@H]3[C@H](CO)N4CCCCN(S(=O)(=O)c5cccs5)C[C@@H]34)cc2)c1`, the AC50 is 33.5 µM. In turn, `O=C(c1cccc(F)c1)N1CCN(c2ccc([N+](=O)[O-])c3cccnc23)CC1` gave an AC50 of over 100 µM.

Turning to `CCN(C(=O)COC(=O)CCc1ccccc1)c1ccccc1`, the AC50 is over 100 µM. `Cc1cccc(-c2ccc([C@@H]3[C@@H](CO)N4CCCCN(S(=O)(=O)c5ccccc5C)C[C@H]34)cc2)c1`: the AC50 was determined as 48.8 µM. Compound `COc1ccccc1C1CCN(C(=O)c2cccs2)CC1` gave a concentration at half-maximal activity (AC50) of over 100 µM. Turning to `Nc1nc(SCc2ccccc2)c2ncn(Cc3ccccc3)c2n1`, the concentration at half-maximal activity (AC50) was 41.2 µM. On the same count and under the same terms, for `O=C(CCNC(=O)c1ccco1)Nc1cccc(Br)c1` the value was over 100 µM. The same measure, in the same setting: for `Cc1ccc(S(=O)(=O)Nc2ccc3c(c2)C(=O)N([C@H](C)CO)C[C@@H](C)[C@H](CN(C)C(=O)c2ccccc2)OCCCC[C@@H](C)O3)cc1` the value was over 100 µM; for `CC1CCN(c2ccc3nnc(CCC(=O)Nc4cccc(F)c4)n3n2)CC1`, over 100 µM.

For the next assay, the system named is E. coli H69 humanized mutant ribosome RFP strain growth, fluorescence, 24 h. The assay is described as above. Particulars: test 2.
Regarding `CC(C)n1nnnc1C1c2ccccc2C(=O)N1CCOc1ccccc1` (stereo not drawn), the AC50 is 0.989 µM.

In the case of `COC(=O)c1sccc1NC(=O)Cn1nnc(-c2ccccc2C)n1`, the half-maximal activity concentration (AC50) is 45.1 µM. Same read-out and setting: for `COC(C(=O)Nc1ccnn1C1CCN(Cc2ccc(Cl)s2)CC1)c1ccccc1` (stereo not drawn) the value was over 100 µM; for `CC(C)(C)N(Cc1ccccc1)C(=O)COC(=O)Cn1cnc2ccccc2c1=O`, over 100 µM. The compound `O=C(c1ccc(-n2cccn2)cc1)N1CCc2ccccc2C1` displayed a half-maximal activity concentration (AC50) of 52.2 µM. As for `Cn1c(CC2C(=O)Nc3ccc(Br)cc32)nc2ccccc2c1=O` (stereo not drawn), the AC50 is over 100 µM. On the same count and under the same terms, for `Brc1ccccc1Cn1c(-c2cncs2)nc2ccccc21` the value was over 100 µM; for `O=C(Nc1nc(-c2ccc3ccccc3c2)cs1)C1CCN(S(=O)(=O)c2cccs2)CC1`, over 100 µM. The same measure, in the same setting: for `Cc1cc(C)c(OCCN(C)Cc2ccccc2)c(Br)c1` the value was over 100 µM; for `COc1ccccc1-c1noc2ncnc(Nc3cccc(C)c3C)c12`, over 100 µM. `O=C1c2ccccc2C(c2nnnn2C2CCCCC2)N1CCc1ccc(O)cc1` (stereo not drawn) yielded an AC50 of over 100 µM. `CCCCNC(=O)C[C@@H]1C[C@@]2(C(=O)OC)CCCCC=C2N(Cc2ccccc2)C1=O` showed a half-maximal activity concentration (AC50) of over 100 µM. As for `COc1ccc(OC2C(=O)N(Cc3ccc4c(c3)OCO4)C2c2cccs2)cc1` (stereo not drawn), the AC50 was found to be 47.4 µM. The same measure, in the same setting: for `O=C1CCCCC1Nc1ccc(Br)cc1` (stereo not drawn) the value was over 100 µM; for `Cc1ccccc1S(=O)(=O)c1cc2ccccc2nc1N`, over 100 µM. Same read-out and setting: for `Cc1c(CCOC(=O)C23CC4CC(CC(C4)C2)C3)sc[n+]1Cc1ccccc1` the value was 4.41 µM; for `COc1ccc(C2CC(c3cccs3)=Nc3ccccc3S2)cc1` (stereo not drawn), 1.44 µM. The same measure, in the same setting: for `C=CCNC(=O)c1ccccc1CCc1ccccc1` the value was over 100 µM.
